The values below come from ChEMBL document CHEMBL1138167, “Asymmetric synthesis of the L-fuco-nojirimycin, a nanomolar alpha-L-fucosidase inhibitor” (Bioorg Med Chem Lett, 2006).

The experiment deals with T1, Tissue alpha-L-fucosidase (Bos taurus, UniProt Q2KIM0).
T1 sequence (Q2KIM0 whole entry): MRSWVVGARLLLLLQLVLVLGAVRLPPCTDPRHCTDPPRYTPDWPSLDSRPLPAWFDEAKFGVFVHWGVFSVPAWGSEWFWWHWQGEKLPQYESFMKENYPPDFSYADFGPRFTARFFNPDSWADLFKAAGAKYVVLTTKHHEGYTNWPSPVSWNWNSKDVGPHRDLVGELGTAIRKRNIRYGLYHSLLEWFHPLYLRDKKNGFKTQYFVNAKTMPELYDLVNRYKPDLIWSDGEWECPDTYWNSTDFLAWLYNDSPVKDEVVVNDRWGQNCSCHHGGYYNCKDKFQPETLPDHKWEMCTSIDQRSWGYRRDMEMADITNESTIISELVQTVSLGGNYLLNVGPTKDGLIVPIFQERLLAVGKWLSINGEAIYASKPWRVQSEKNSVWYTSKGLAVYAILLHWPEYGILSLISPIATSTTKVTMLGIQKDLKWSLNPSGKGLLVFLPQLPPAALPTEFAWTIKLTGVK
Kind of experiment: Inhibition of bovine alpha-L-fucosidase.
Regarding `C[C@@H]1N[C@H](S(=O)(=O)O)[C@@H](O)[C@H](O)[C@@H]1O`, the inhibition constant Ki was determined as 1 nM.
Still for that read-out and setting: the figure for `C[C@H]1NC(O)[C@H](O)[C@@H](O)[C@H]1O` (some centres not stated) is 3000 nM; for `C[C@H]1N[C@@H](S(=O)(=O)O)[C@H](O)[C@@H](O)[C@H]1O` it is 13000 nM.
As to `C[C@@H]1NC[C@@H](O)[C@H](O)[C@@H]1O` [DEOXYFUCONOJIRIMYCIN], half-maximal inhibition (IC50) required 5 nM and the Ki turned out to be 3 nM.
In turn, `C[C@H]1NC[C@H](O)[C@@H](O)[C@H]1O` displayed a Ki of 660000 nM.
`C[C@@H]1NC(O)[C@@H](O)[C@H](O)[C@@H]1O` (some centres not stated) displayed a Ki of 1 nM.
